According to patent US20070134720A1, “Method of detecting effect of controlling synoviolin activity” (priority 2003, published 2007):

Tests used:
[1] = target: T1, synoviolin activity of ubiquitinating P4HA1 (Homo sapiens, UniProt Q86TM6); experiment: Inhibition of ubiquitination activity using energy transfer of XL665-Eu(K) (HTRF method); type: biochemical; details: Eu(K)-labeled ubiquitin, GST-P4HA1 substrate, compared with binding inhibition
T1 construct: comprises a MBP-fused synoviolin that lacks the transmembrane segment (TM) (synoviolin dTM); made in house; host or cells: Escherichia coli
Experimental: A method of high-throughput screening (HTS) for compounds that inhibit the synoviolin activity of ubiquitinating P4HA1 was investigated. A system was designed in which ubiquitination by Eu(K)-labeled ubiquitin was conducted using P4HA1 expressed as a GST-fused protein as a substrate. When P4HA1 underwent Eu(K)-labeled ubiquitination, energy transfer occurred between an XL665-labeled anti-GST antibody and an Eu(K)-labeled ubiquitin, and fluorescence was detected.
A standard reaction mixture comprising 60 ng MBP-synoviolin-His, 15 ng GST-P4HA1, 15 ng E1 (Boston Biochem), 200 ng His-E2, 6.25 nM Eu(K)-labeled ubiquitin (CIS bio international), 5 mM MgCl2, 2 mM ATP, 1 mM DTT, 0.1% BSA, 0.3% DMSO, and a test compound in 15 μL of a 20 mM HEPES (pH 7.5) solution was prepared using a 384-well plate. After a 30 minute reaction at 37° C., 5 μL of 0.5 M EDTA was added to terminate the reaction. To this was added 5 μL of 20 mM HEPES solution containing an XL665-labeled […] antibody (0.025 μg) and 1 M K, and the mixture was left to stand overnight at room temperature, and the fluorescence was measured using RUBYstar™.

[2] = target: T1, synoviolin activity of ubiquitinating P4HA1; experiment: Inhibition of ubiquitination activity using ELISA; type: biochemical; details: anti-GST capture, anti-ubiquitin detection, OD 450 nm
Experimental: A 96-well ELISA plate was adsorbed with an anti-GST antibody at 4° C. overnight and then blocked with 5% BSA/PBS solution at room temperature until it was used. The plate was washed twice before use with 300 μL of PBS containing 0.3% BSA (PBSA).
A standard reaction mixture comprising 80 ng MBP-synoviolin-His, 40 ng GST-P4HA1, 15 ng E1, 200 ng His-E2, 5 mM MgCl2, 2 mMATP, 1 mM DTT, 0.1% BSA, 0.3% DMSO, and a test compound in 30 μL of 50 mM HEPES (pH 7.5) solution was prepared in a reaction tube. After a 30 minute reaction at room temperature, 70 μL of a solution containing 70 mM EDTA and 50 mM HEPES was added to terminate the reaction. This (30 μl) was added to a plate previously containing 70 μL PBSA and incubated at room temperature for 1 hour. After washing three times with 300 μL of PBSA, 100 μL of a mouse anti-ubiquitin antibody solution diluted 1:5000 in PBSA was added, and the mixture was incubated at room temperature for 1 hour. After three washes with 300 μL of PBSA, 100 μL of a peroxidase-labeled anti-mouse IgG solution diluted 1:10000 in PBSA was added, and the mixture was incubated at room temperature for 1 hour. […] When a sufficient coloration was observed, 1 M phosphoric acid was added to terminate the reaction, and the optical density at 450 nm was measured.

T1 sequence (Q86TM6 246-617 limits assumed): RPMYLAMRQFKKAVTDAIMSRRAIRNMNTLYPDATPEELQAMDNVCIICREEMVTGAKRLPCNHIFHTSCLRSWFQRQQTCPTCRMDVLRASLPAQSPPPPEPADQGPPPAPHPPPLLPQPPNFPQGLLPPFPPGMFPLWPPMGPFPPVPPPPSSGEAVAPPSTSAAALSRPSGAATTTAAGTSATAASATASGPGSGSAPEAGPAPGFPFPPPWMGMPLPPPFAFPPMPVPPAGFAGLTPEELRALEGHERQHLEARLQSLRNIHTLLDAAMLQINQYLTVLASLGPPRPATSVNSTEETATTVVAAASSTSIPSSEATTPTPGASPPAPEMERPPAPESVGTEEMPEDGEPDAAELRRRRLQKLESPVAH

**Q.** DNVCIICREEMVTGAKRLDCN [SEQ ID NO: 5] was tested. Which “concentration inhibiting the ubiquitination of P4HA1, relative to that for inhibition of the binding” value [1] did it give?
**A.** 20 times lower

**Q.** What about the “IC50 of inhibition of the ubiquitination of P4HA1” value [2] of the same sequence?
**A.** 55 µg/mL
